Reference: ChEMBL document CHEMBL1201862, “PubChem BioAssay data set” (2004)
“And” between values parts separate entries of the source, which are not always exact repeats. Identical values can stand only once.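 Dose response: 5 concentrations. Exposure: 48 h. Format: 96-well plates. Endpoint: linear interpolation; highest concentration if not reached. The concentration for 50% growth inhibition is given as GI50.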 The source made the active and inactive calls. No stated cut-off is given here; in the data, active = GI50 up to about 1.1 µM and inactive = higher.

Key:
Assay in all cases: DTP human tumour cell line panel, 48 h
[1] = test system: A498
[2] = test system: A549
[3] = test system: CAKI-1
[4] = test system: COLO 205
[5] = test system: DU-145
[6] = test system: HCC 2998
[7] = test system: HT-29
[8] = test system: K562
[9] = test system: MCF7
[10] = test system: OVCAR-3
[11] = test system: OVCAR-5
[12] = test system: PC-3
[13] = test system: RPMI-8226
[14] = test system: SF-295
[15] = test system: SN12C
[16] = test system: U-251
[17] = test system: UACC-62
[18] = test system: UO-31
[19] = test system: HL-60

Measured: GI50

Cc1[nH]c(C)c(CN(C)C)c1CN(C)C
inactive: [1] > 100 µM | [2] > 100 µM | [3] > 100 µM | [4] > 100 µM | [5] > 100 µM | [6] > 100 µM | [7] > 100 µM | [8] > 100 µM | [9] > 100 µM | [10] > 100 µM | [11] > 100 µM | [12] > 100 µM | [13] > 100 µM | [14] > 100 µM | [15] > 100 µM | [16] > 100 µM | [17] > 100 µM | [18] > 100 µM

COc1ccc(C2=NNC(=O)c3ccccc3N2c2nc(-c3cccs3)nc3cc(OC)c(OC)cc23)cc1
inactive: [1] 2.61 µM | [2] 5.6 µM | [3] 14.6 µM | [4] 2.86 µM | [5] 6.49 µM | [6] 2.96 µM | [7] 3.15 µM | [8] 24.3 µM | [9] 3.36 µM | [10] 2.61 µM | [11] 27.7 µM | [12] 4.68 µM | [13] 3.71 µM | [14] 3.95 µM | [15] 3.17 µM | [16] 3.3 µM | [17] 2.34 µM | [18] 4.34 µM

CNc1ncccc1Nc1cc(=O)n2c3cccnc3n(C)c2c1
inactive: [1] 89.7 µM | [2] > 100 µM | [3] 94.6 µM | [4] > 100 µM | [5] > 100 µM | [6] > 100 µM | [7] 58.3 µM | [8] > 100 µM | [9] > 100 µM | [10] > 100 µM | [11] > 100 µM | [12] 9.51 µM | [13] > 100 µM | [14] 93.5 µM | [16] 21.8 µM | [17] > 100 µM | [18] > 100 µM

O=c1nc2ccc3sc4ccccc4c(=O)c3n2c(=O)[nH]1
inactive: [1] > 100 µM | [2] > 100 µM | [3] > 100 µM | [4] > 100 µM | [5] > 100 µM | [6] > 100 µM | [19] 83.4 µM | [7] > 100 µM | [8] > 100 µM | [9] > 100 µM | [10] > 100 µM | [11] > 100 µM | [12] > 100 µM | [13] > 100 µM | [14] > 100 µM | [15] > 100 µM | [16] > 100 µM | [18] > 100 µM

COc1ccc(/C=C2/N/C(=N\N=C/C(O)C(O)C(O)C(O)CO)NC2=O)cc1 (stereo unspecified)
inactive: [1] > 100 µM | [2] > 100 µM | [3] > 100 µM | [4] > 100 µM | [5] > 100 µM | [6] > 100 µM | [19] 33 µM | [7] > 100 µM | [8] 53.8 µM and 78 µM | [9] 40.1 µM | [10] > 100 µM | [11] > 100 µM | [12] > 100 µM | [13] > 100 µM | [14] > 100 µM | [15] > 100 µM | [16] > 100 µM | [18] > 100 µM

CN(C)Cc1cc(/N=N/c2ccc(Cl)cc2)cc(CN(C)C)c1O
inactive: [1] 14.7 µM | [2] 8.93 µM | [3] 12.1 µM | [4] 3.99 µM | [5] 16.9 µM | [6] 10.5 µM | [19] 1.44 µM | [7] 6.62 µM | [8] 2.52 µM | [9] 7.87 µM | [10] 1.84 µM | [12] 5.41 µM | [13] 12.8 µM | [14] 11.8 µM | [15] 11.4 µM | [16] 7.24 µM | [17] 13.9 µM | [18] 1.52 µM

COc1ccc(C(=O)N(C(=O)N2CCN(c3ccccc3)CC2)S(=O)(=O)c2ccccc2)cc1
inactive: [1] 53.8 µM | [2] 28.4 µM | [3] 20.3 µM | [4] 17.9 µM | [5] 27.2 µM | [6] 52.6 µM | [19] 22.1 µM | [7] 28.1 µM | [8] 24.2 µM | [9] 29.6 µM | [10] 37.8 µM | [11] 24.7 µM | [12] 30.5 µM | [14] 31.9 µM | [15] 24.3 µM | [16] 18.1 µM | [17] 18.3 µM | [18] 13.6 µM

O=S(=O)(c1ccccc1)[C@@H]1[C@H]2C=C[C@](CS)(O2)[C@H]1S(=O)(=O)c1ccccc1
inactive: [1] > 100 µM | [2] > 100 µM | [3] 31.6 µM | [4] 79.3 µM | [5] > 100 µM | [6] > 100 µM | [19] 32.8 µM | [7] > 100 µM | [8] 14.4 µM | [9] 62.5 µM | [10] 19.1 µM | [11] > 100 µM | [12] 35.6 µM | [14] > 100 µM | [15] 38.2 µM | [16] > 100 µM | [17] > 100 µM | [18] > 100 µM

O=c1cc(-c2cccnc2)[nH]c2cc3c(cc12)OCO3
inactive: [1] 10.7 µM | [2] 19.2 µM | [4] 13.9 µM | [5] 33 µM | [6] 7.4 µM | [19] 7.35 µM | [7] 6.59 µM | [8] 5.07 µM | [9] 5.92 µM | [10] 2.81 µM | [11] > 100 µM | [12] 11 µM | [13] 34 µM | [14] 11.1 µM | [15] 12.2 µM | [16] 4.16 µM | [17] 3.3 µM | [18] 44.4 µM

COC(=O)C(NC(=O)c1ccccc1)c1ccco1 (stereo unspecified)
inactive: [1] > 100 µM | [2] > 100 µM | [5] > 100 µM | [6] > 100 µM | [19] > 100 µM | [7] > 100 µM | [8] > 100 µM | [9] > 100 µM | [10] > 100 µM | [11] > 100 µM | [12] > 100 µM | [13] > 100 µM | [14] > 100 µM | [15] > 100 µM | [16] > 100 µM | [17] > 100 µM | [18] > 100 µM

COc1c(O)cc2oc(-c3ccc(O)cc3)cc(=O)c2c1O [HISPIDULIN]
inactive: [1] 2.57 µM | [2] 35.5 µM | [4] 90.4 µM | [5] 30.5 µM | [6] 28.7 µM | [19] 24.5 µM | [7] 45.7 µM | [8] 34.8 µM | [9] 52 µM | [10] 44.1 µM | [11] 75.2 µM | [12] 34.2 µM | [13] 46.3 µM | [14] 44.1 µM | [15] 39.4 µM | [16] 42.7 µM | [17] 19 µM | [18] 25.1 µM
